According to patent publication US11400130B2, “Inhibitors for proliferating cell nuclear antigen and uses” (Purdue Research Foundation, priority 2015, dated 2022):
Peptide text beside a SMILES is read from it. * marks the point of attachment. 5FAM = O=C1OC2(c3ccc(O)cc3Oc3cc(O)ccc32)c2ccc(C(=O)*)cc21; Ahx = NCCCCCC(=O)O

How the values were obtained:
[1] = biological target: T1, PCNA (Homo sapiens, UniProt P12004); test: Fluorescence polarization binding assay (PCNA titration for affinity of FAM-PL); details: fixed FAM-PL (5 nM), two-fold increasing recombinant His-tagged PCNA, non-linear regression; read-out: Kd of FAM-PL peptide for PCNA
T1 construct: made in house; host or cells: E. coli BL21 (DE3)
T1 sequence (P12004 with tags, fused parts or gaps): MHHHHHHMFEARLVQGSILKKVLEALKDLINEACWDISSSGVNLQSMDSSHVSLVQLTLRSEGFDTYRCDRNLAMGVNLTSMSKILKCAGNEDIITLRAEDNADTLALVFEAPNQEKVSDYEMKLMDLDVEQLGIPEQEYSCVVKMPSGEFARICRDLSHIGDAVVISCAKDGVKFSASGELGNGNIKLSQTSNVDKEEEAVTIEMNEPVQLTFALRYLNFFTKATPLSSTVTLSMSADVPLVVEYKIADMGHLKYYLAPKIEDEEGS
Method: After synthesis and purification, peptoids were screened in a fluorescence polarization (FP) assay to find ligands that disrupted the interaction between His-tagged PCNA and fluorescein-labeled Pogo Ligase peptide (FAM-PL) (Kontopidis, G., et al. Proc. Natl. Acad. Sci. U.S.A 2005, 102 (6), 1871-1876). In the design of the assay, conditions were adopted from Pedley et al., 2016, to improve the dynamic range between bound and unbound FAM-PL. While an acceptable Z-score was determined using the original 10 nM peptide and 100 nM PCNA (FIG. 4), an improved dynamic range was established by adjusting the ligand and receptor concentrations. […] Because more than 80% of the peptide was bound at a PCNA concentration of […] this protein-receptor concentration was selected for use in subsequent displacement assays. The inclusion of PCNA was included in the overall calculations of Ki values.
Fluorescence Polarization Binding Assay. […] Fluorescence polarization and resultant anisotropy were measured on a BioTek Synergy 4 Multi-Detection Microplate Reader using an excitation filter of 485 nm and an emission filter of 530 nm, each with a 20 nm band-pass. […]
FO values were analyzed using non-linear regression statistics in OriginPro 2015, representing them as the mean±standard error of the mean (Y), and plotting them as a function of the monomeric PCNA protein concentration (X). […]

[2] = biological target: T1, PCNA; test: Fluorescence polarization competition assay (displacement of FAM-PL from His-tagged PCNA); type: binding; details: for Disruption of PCNA-PL peptide binding by individual fragments: individual peptoid fragments screened alone, dose response (FIG. 7); for Ki: calculated from IC50 using equation 5 (modified Cheng-Prusoff), 95% confidence interval around the mean; for IC50: disruption of PCNA / FAM-PL binding, values are 95% confidence interval around the mean
Method: The inclusion of PCNA was included in the overall calculations of Ki values.
Anisotropy was converted to fractional occupancy, and IC50 values were determined for each peptoid by performing non-linear regression fits of each dose response curve using equation 4. Inhibition constants (Ki values) were calculated from the resultant IC50 values using equation 5 (Table 2).
Fluorescence Polarization Competition Assay. […] The plate was allowed to incubate at room temperature in the dark for 30 minutes prior to fluorescent measurement. […] Anisotropy values were converted to fractional occupancy using equation 2, and IC50 values were calculated by fitting the data to equation 4:
[formula] wherein n is the Hill slope.

SMILES | Kd [1] | Disruption of PCNA-PL peptide binding by individual fragments [2] | Ki [2] | IC50 [2]
CC[C@H](C)[C@H](NC(=O)[C@H](CCCCN)NC(=O)[C@H](CCCCN)NC(=O)[C@H](CCC(N)=O)NC(=O)[C@H](CC(C)C)NC(=O)[C@@H](NC(=O)[C@H](C)NC(=O)[C@H](CO)NC(=O)CCCCCNC(=O)c1ccc2c(c1)C(=O)OC21c2ccc(O)cc2Oc2cc(O)ccc21)C(C)C)C(=O)N[C@H](C(=O)N[C@@H](CC(=O)O)C(=O)N[C@@H](Cc1ccc(O)cc1)C(=O)N[C@@H](Cc1ccccc1)C(=O)N[C@@H](Cc1c[nH]cn1)C(=O)N1CCC[C@H]1C(=O)N[C@@H](CCCCN)C(=O)N[C@@H](CCCCN)C(N)=O)[C@@H](C)O [FAM-PL] ({5FAM-Ahx}-SAVLQKKITDYFHPKK-NH2) | 107 nM |  |  | 
CC(C)(C)[Si](C)(C)OCc1ccc(CN)cc1 [NBal] |  | none of the fragments showed any evidence of inhibition |  | 
CC(C)(C)OC(=O)c1ccc(CN)cc1 [NBza] |  | none of the fragments showed any evidence of inhibition |  | 
NCCO [NEal, ethanol amine] |  | none of the fragments showed any evidence of inhibition |  | 
NCCCCNCC(=O)N(CC(=O)N(CC(N)=O)Cc1ccc(CN)cc1)Cc1ccc2c(c1)OCO2 [NLys-NPip-NMma] |  |  | 1240 ± 190 nM | 12900 ± 1970 nM
NCc1ccc(CNCC(=O)N(CC(=O)N(CC(N)=O)Cc2ccc(CO)cc2)Cc2ccc3c(c2)OCO3)cc1 [NMma-NPip-NBal] |  |  | 1120 ± 245 nM | 11700 ± 2550 nM
NCc1ccc(CN(CC(N)=O)C(=O)CN(CCO)C(=O)CN[C@H](CO)Cc2cc(I)c(Oc3ccc(O)cc3)c(I)c2)cc1 [T2AA-NEal-NMma] |  |  | 114 ± 23.1 nM | 1180 ± 240 nM
